Results from patent US7939558B2, “Compounds having activity in increasing ion transport by mutant-CFTR and uses thereof” (The Regents of the University of California, priority 2004, dated 2011).

Columns and labels:
G1349D-CFTR = biological target: T1, G1349D-CFTR (Homo sapiens, UniProt P13569, G1349D); experiment: Short-circuit Cl− current in FRT cells expressing G1349D-CFTR; format: cell-based; details: after maximal forskolin
T1 construct: expressed in transfected cells; host or cells: FRT cells
Procedure: Experiments were done after basolateral membrane permeabilization and in the presence of a transepithelial Cl^− gradient, so that short-circuit current represents apical membrane Cl^− current. […] Cells were plated on a permeable support to generate a polarized epithelium, cultured for 5-7 days, and then incubated at 27° C. for 24 hours. Transepithelial chloride current was measured in a modified Ussing chamber in the presence of a chloride gradient.
In contrast to the ΔF508 mutation, other cystic fibrosis mutations, which number >1000, have a relatively very low frequency. The fraction of CF mutations that cause a pure gating defect (class III mutants) is unknown but is likely to be substantial.

ΔF508-CFTR [1] = biological target: T2, ΔF508-CFTR (Homo sapiens, UniProt P13569, DEL508-508); details: in combination with cAMP agonists; cited from earlier work
ΔF508-CFTR [2] = biological target: T2, ΔF508-CFTR; experiment: Short-circuit current in primary nasal epithelial cells from ΔF508 homozygous subject; format: cell-based; set-up: expressed in transfected cells; details: 27° C. 20-24 hours, amiloride, forskolin 20 μM
Procedure: For short-circuit measurements cells were cultured on Snapwell permeable supports (Corning-Costar) at 500,000 cells/insert. […] Patch clamp experiments were done on ΔF508-CFTR-expressing FRT cells plated in 35-mm Petri dishes.
Human nasal epithelial cells from ΔF508 homozygote subjects were cultured as polarized monolayers on permeable supports for transepithelial short-circuit current measurement.

G551D-CFTR = G551D-CFTR (Homo sapiens, UniProt P13569, G551D); experiment: Short-circuit Cl− current in FRT cells expressing G551D-CFTR; details: after maximal forskolin
G551D-CFTR, sequence (P13569 whole entry G551D): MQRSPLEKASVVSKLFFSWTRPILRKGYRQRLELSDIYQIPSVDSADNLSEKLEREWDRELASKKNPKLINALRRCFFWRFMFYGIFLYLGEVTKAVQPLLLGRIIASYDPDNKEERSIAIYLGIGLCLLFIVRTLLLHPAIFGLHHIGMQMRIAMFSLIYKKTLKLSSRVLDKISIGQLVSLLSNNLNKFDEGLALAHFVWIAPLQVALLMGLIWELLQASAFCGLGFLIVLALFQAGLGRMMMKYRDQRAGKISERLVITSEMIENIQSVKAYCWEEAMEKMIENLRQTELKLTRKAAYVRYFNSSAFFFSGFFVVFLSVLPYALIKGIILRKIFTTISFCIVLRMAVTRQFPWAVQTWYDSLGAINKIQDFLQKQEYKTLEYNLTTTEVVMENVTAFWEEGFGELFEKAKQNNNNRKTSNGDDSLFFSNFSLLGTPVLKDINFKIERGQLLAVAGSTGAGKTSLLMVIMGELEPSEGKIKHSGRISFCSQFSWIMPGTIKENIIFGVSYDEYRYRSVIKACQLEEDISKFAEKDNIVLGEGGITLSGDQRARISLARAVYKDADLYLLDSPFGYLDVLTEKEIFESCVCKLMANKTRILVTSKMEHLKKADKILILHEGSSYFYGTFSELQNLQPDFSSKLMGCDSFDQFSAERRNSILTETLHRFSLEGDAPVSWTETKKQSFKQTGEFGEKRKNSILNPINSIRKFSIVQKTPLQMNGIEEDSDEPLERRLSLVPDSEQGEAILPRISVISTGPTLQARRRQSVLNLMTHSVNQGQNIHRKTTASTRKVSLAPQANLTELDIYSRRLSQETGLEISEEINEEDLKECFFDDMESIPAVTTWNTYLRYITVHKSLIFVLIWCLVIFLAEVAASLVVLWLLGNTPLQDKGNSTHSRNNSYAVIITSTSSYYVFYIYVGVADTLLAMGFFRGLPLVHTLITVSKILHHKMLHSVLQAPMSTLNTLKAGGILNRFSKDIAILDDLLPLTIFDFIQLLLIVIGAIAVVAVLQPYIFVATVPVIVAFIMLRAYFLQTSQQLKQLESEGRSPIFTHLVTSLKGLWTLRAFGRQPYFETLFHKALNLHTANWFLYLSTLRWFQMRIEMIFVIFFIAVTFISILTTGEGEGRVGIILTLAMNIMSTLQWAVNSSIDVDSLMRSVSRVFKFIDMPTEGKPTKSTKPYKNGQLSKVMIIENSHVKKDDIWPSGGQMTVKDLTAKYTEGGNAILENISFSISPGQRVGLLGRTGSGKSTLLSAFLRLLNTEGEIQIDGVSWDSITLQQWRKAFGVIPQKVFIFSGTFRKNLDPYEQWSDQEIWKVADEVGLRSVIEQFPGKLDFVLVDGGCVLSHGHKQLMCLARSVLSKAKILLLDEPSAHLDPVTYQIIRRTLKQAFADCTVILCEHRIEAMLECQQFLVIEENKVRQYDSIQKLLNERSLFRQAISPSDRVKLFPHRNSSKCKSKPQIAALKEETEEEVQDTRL

T2 sequence (P13569 with tags, fused parts or gaps DEL508-508): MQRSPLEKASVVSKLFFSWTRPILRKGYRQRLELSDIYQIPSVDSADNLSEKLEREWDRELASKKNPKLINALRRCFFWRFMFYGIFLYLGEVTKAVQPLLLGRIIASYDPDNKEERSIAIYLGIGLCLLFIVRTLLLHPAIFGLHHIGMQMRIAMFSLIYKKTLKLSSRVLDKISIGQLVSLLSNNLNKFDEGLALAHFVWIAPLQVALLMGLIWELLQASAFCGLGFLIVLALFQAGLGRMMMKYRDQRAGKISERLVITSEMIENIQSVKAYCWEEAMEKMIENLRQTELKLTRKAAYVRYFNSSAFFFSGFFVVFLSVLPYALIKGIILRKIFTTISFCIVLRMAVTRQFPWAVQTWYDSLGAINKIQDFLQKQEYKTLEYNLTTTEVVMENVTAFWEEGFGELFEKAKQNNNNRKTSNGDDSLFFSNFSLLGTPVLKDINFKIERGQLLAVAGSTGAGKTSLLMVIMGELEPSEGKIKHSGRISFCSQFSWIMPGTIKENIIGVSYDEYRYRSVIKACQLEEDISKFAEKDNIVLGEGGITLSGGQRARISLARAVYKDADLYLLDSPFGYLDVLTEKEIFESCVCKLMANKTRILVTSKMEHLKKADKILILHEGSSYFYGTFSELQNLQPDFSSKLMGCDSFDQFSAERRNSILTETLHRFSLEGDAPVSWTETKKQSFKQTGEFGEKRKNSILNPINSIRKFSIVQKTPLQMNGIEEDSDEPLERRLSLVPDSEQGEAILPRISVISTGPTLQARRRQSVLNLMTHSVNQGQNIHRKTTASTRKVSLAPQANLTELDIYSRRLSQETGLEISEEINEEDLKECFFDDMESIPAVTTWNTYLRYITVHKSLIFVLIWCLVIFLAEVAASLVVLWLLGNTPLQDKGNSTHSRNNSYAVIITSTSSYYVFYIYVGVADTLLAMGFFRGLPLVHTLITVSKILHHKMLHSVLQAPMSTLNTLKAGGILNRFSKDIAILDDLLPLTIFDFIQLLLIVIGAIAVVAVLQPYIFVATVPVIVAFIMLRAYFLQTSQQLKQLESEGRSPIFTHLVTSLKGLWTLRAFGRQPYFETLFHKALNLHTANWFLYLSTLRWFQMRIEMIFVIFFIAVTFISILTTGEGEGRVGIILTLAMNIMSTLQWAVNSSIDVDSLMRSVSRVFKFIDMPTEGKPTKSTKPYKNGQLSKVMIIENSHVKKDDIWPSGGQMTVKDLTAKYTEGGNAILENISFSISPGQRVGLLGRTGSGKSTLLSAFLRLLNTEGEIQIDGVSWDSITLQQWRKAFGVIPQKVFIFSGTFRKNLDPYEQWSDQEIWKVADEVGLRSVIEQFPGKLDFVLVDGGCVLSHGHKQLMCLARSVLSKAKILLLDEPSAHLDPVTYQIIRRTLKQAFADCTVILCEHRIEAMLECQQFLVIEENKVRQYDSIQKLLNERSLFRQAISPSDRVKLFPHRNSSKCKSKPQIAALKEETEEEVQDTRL
T1 sequence (P13569 whole entry G1349D): as the sequence (P13569 whole entry G551D) above, with D551G, G1349D counted along it

O=c1c(-c2ccc(O)cc2)coc2cc(O)cc(O)c12 [genistein, reference compound]
Cl− current in G1349D-CFTR expressing cells (G1349D-CFTR): increased Cl^− current substantially, albeit at high micromolar concentrations | concentration that increases ΔF508-CFTR channel activity (ΔF508-CFTR [1]): > 50 µM | activation of ΔF508-CFTR current (ΔF508-CFTR [2]): comparably effective but at much higher concentrations | Cl− current in G551D-CFTR expressing cells (G551D-CFTR): increased Cl^− current substantially, albeit at high micromolar concentrations
